Laboratory results taken from PubChem BioAssay AID1845200 (Molecular Pharmacology Branch, DTP, NCI, 2023).

Test system: ASPS-1 complex tumor spheroids, viability
Test: Anticancer human tumor ASPS-1 cell line growth inhibition;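 note: spheroids exposed to agents for 7 days after 3 days of growth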;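 for viability, T/C: 100% = DMSO vehicle treated spheroids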
Settings: for IC50: curve of first compound; for viability, T/C: stronger effect = lower value
Source text: Multicellular complex tumor spheroid response to DNA repair inhibitors in combination with DNA-damaging drugs
This study explores the anticancer activities of DNA-damaging drugs and inhibitors of DNA damage repair, both as single agents and in combinations. Complex tumor spheroids comprised of malignant cells, endothelial cells and mesenchymal stem cells served as an in vitro model for human solid tumors. This model system incorporates physiologically relevant features and patient-derived or established malignant cell lines with clinically relevant genetic alterations from many tumor types. Twenty-six patient-derived or established malignant cell lines were evaluated representing sarcoma, melanoma, small cell lung cancer (SCLC), non-small cell lung cancer (NSCLC), as well as bladder, ovarian and pancreatic cancers. The concentration ranges selected for each drug and investigational agent were based upon clinically achievable concentrations if the clinical Cmax of the agent was known.
Compounds. The drugs and compounds olaparib (NSC753686), talazoparib (NSC767125), berzosertib (NSC777718), elimusertib (NSC800525), nedisertib (NSC802822), VX-984 (NSC792969), AZD-1390 (NSC803789), temozolomide (NSC362856), topotecan (NSC609699), trabectedin (NSC813783), staurosporine (NSC755774), and gemcitabine (NSC613327) were obtained from the National Cancer Institute (NCI) Developmental Therapeutics Program Chemical Repository. The FDA-approved anticancer drug set is available from the Developmental Therapeutics Program at https://dtp.cancer.gov/organization/dscb/obtaining/available_plates.htm. […] The stock solutions were prepared in dimethyl sulfoxide (DMSO, Sigma-Aldrich, St. Louis, MO, cat. D2650) at 400-fold the tested concentration and stored at -70 degrees C. Prior to their use, the stock solutions were diluted in fresh medium and the final DMSO concentration in the assay was 0.25% (v/v). All drugs and investigational agents were tested over a range starting from a high concentration at or near the clinical Cmax and decreasing in half-log increments. If the clinical Cmax for an agent had not been determined, the highest concentration tested was 10 microM.
Cell Lines. The patient-derived cancer cell (PDC) lines: 156681-154-R-J1-PDC, 283228-195-R-J1-PDC, 287954-098-R-J1-PDC, 292921-168-R-J2-PDC, 349418-098-R-PDC, 425362-245-T-J1-PDC, 556581-035-R-J1-PDC, and BL0293-F563-PDC were received from the NCI Patient-Derived Models Repository (PDMR, https://pdmr.cancer.gov). The established cell lines HS-SY-2 (RRID:CVCL_8719), MPNST, and SYO-1 (RRID:CVCL_7146) were obtained from the Sloan Kettering Institute. The alveolar soft parts sarcoma cell line ASPS-1 (RRID:CVCL_S738) was established at the NCI and grown from internal seed stocks. The following established cell lines were purchased from the American Type Culture Collection (ATCC, Manassas, VA): G-401 (ATCC, cat. CRL-1441, RRID:CVCL_0270), SW982 (ATCC, cat. HTB-93, RRID:CVCL_1734), VA-ES-BJ (ATCC, cat. CRL-2138, RRID:CVCL_1785), NCI-H719 (ATCC, cat. CRL-5837, RRID:CVCL_1582), NCI-H196 (ATCC, cat. CRL-5823, RRID:CVCL_1509), NCI-H841 (ATCC, cat. CRL-5845, RRID:CVCL_1595), NCI-H1618 (ATCC, cat. CRL-5879, RRID:CVCL_1480), NCI-H1876 (ATCC, cat. CRL-5902, RRID:CVCL_1503), DMS 114 (ATCC, cat. CRL-2066; RRID:CVCL_1174), NCI-H211 (ATCC, cat. CRL-5824; RRID:CVCL_1529), and SW 1271 (ATCC, cat. CRL-2177, RRID:CVCL_1716). The small cell lung cancer cell line COR-L88 was purchased from Sigma-Aldrich (cat. 92031917-1VL, RRID:CVCL_1141). The non-small cell lung cancer cell lines NCI-H226 (RRID:CVCL_1544) and NCI-H322M (RRID:CVCL_1557) were established at the NCI and grown from internal seed stocks. Pooled donor human umbilical vein endothelial cells (HUVEC, Lonza, cat. CC-2519) and human mesenchymal stem cells (hMSC, Lonza, cat. PT-2501) were purchased from Lonza (Walkersville, MD).
Cell Culture. All cells were maintained in an incubator at 37 degrees C and 5% CO2 with 95% humidity. […]

[1] = second compound 0.003 µM, first compound 0.0316 µM
[2] = second compound 0.003 µM, first compound 0.1 µM
[3] = second compound 0.003 µM, first compound 0.316 µM
[4] = second compound 0.003 µM, first compound 1 µM
[5] = second compound 0.003 µM, first compound 3.16 µM
[6] = second compound 0.003 µM, first compound 10 µM
[7] = second compound 0.00949 µM, first compound 0.0316 µM
[8] = second compound 0.00949 µM, first compound 0.1 µM
[9] = second compound 0.00949 µM, first compound 0.316 µM
[10] = second compound 0.00949 µM, first compound 1 µM
[11] = second compound 0.00949 µM, first compound 3.16 µM
[12] = second compound 0.00949 µM, first compound 10 µM
[13] = second compound 0.03 µM, first compound 0.0316 µM
[14] = second compound 0.03 µM, first compound 0.1 µM
[15] = second compound 0.03 µM, first compound 0.316 µM
[16] = second compound 0.03 µM, first compound 1 µM
[17] = second compound 0.03 µM, first compound 3.16 µM
[18] = second compound 0.03 µM, first compound 10 µM
[19] = second compound 0.0949 µM, first compound 0.0316 µM
[20] = second compound 0.0949 µM, first compound 0.1 µM
[21] = second compound 0.0949 µM, first compound 0.316 µM
[22] = second compound 0.0949 µM, first compound 1 µM
[23] = second compound 0.0949 µM, first compound 3.16 µM
[24] = second compound 0.0949 µM, first compound 10 µM
[25] = second compound 0.3 µM, first compound 0.0316 µM
[26] = second compound 0.3 µM, first compound 0.1 µM
[27] = second compound 0.3 µM, first compound 0.316 µM
[28] = second compound 0.3 µM, first compound 1 µM
[29] = second compound 0.3 µM, first compound 3.16 µM
[30] = second compound 0.3 µM, first compound 10 µM

Compound	IC50 (second compound 0.003 µM) [µM]	IC50 (second compound 0.00949 µM) [µM]	IC50 (second compound 0.03 µM) [µM]	IC50 (second compound 0.0949 µM) [µM]	IC50 (second compound 0.3 µM) [µM]	viability, T/C [1] [%]	viability, T/C [2] [%]	viability, T/C [3] [%]	viability, T/C [4] [%]	viability, T/C [5] [%]	viability, T/C [6] [%]	viability, T/C [7] [%]	viability, T/C [8] [%]	viability, T/C [9] [%]	viability, T/C [10] [%]	viability, T/C [11] [%]	viability, T/C [12] [%]	viability, T/C [13] [%]	viability, T/C [14] [%]	viability, T/C [15] [%]	also measured
CC1COCCN1c1cc(-c2ccnn2C)c2ccnc(-c3ccn[nH]3)c2n1 (stereo not given) + CC[C@@]1(O)C(=O)OCc2c1cc1n(c2=O)Cc2cc3c(CN(C)C)c(O)ccc3nc2-1	0.224	0.0608	< 0.0316	< 0.0316	< 0.0316	73.9	59.1	46.2	44.5	47.8	43.5	56.9	48.7	39.9	40.1	46.8	42.3	38.7	35.1	35.8	viability, T/C [16]: 39.6%; viability, T/C [17]: 42.1%; viability, T/C [18]: 42.5%; viability, T/C [19]: 26.7%; viability, T/C [20]: 26.5%; viability, T/C [21]: 28.7%; viability, T/C [22]: 34.1%; viability, T/C [23]: 41.9%; viability, T/C [24]: 36.4%; viability, T/C [25]: 23.3%; viability, T/C [26]: 23.2%; viability, T/C [27]: 23.5%; viability, T/C [28]: 33.8%; viability, T/C [29]: 44.6%; viability, T/C [30]: 38.6%
COc1cc(C)[nH]c(=O)c1CN1CCc2c(Cl)cc(C(OC)C3COC3)c(Cl)c2C1=O (stereo not given) + CC[C@@]1(O)C(=O)OCc2c1cc1n(c2=O)Cc2cc3c(CN(C)C)c(O)ccc3nc2-1	> 10	> 10	> 10	> 10	> 10	107	111	99.3	98.7	99.9	101	112	110	107	98.9	98.9	98.8	84.6	89.1	88.8	viability, T/C [16]: 87.2%; viability, T/C [17]: 91.3%; viability, T/C [18]: 82.8%; viability, T/C [19]: 61.8%; viability, T/C [20]: 61.7%; viability, T/C [21]: 60.2%; viability, T/C [22]: 62.7%; viability, T/C [23]: 58.4%; viability, T/C [24]: 59.3%; viability, T/C [25]: 69.7%; viability, T/C [26]: 64.8%; viability, T/C [27]: 69.2%; viability, T/C [28]: 64.9%; viability, T/C [29]: 64.2%; viability, T/C [30]: 65.7%
Cc1cc(C)c(CNC(=O)c2cc(-c3ccc(CN4CCOCC4)cc3)cc3c2cnn3C2CCCC2)c(=O)[nH]1 + CC[C@@]1(O)C(=O)OCc2c1cc1n(c2=O)Cc2cc3c(CN(C)C)c(O)ccc3nc2-1	> 10	> 10	> 10	0.777	< 0.0316	100	106	94.2	93.7	85.2	81.2	107	114	107	95.2	87.2	77.8	95.8	98.7	89.9	viability, T/C [16]: 79.9%; viability, T/C [17]: 66%; viability, T/C [18]: 74%; viability, T/C [19]: 59%; viability, T/C [20]: 55.3%; viability, T/C [21]: 52.3%; viability, T/C [22]: 46.2%; viability, T/C [23]: 46.5%; viability, T/C [24]: 52.8%; viability, T/C [25]: 49.5%; viability, T/C [26]: 47%; viability, T/C [27]: 44.4%; viability, T/C [28]: 45.6%; viability, T/C [29]: 46.4%; viability, T/C [30]: 56.9%
[2H]c1nc(C)nc([2H])c1-c1cc(NC[C@@H](C)c2cccc3c(C(=O)NC)ccnc23)ncn1 + CC[C@@]1(O)C(=O)OCc2c1cc1n(c2=O)Cc2cc3c(CN(C)C)c(O)ccc3nc2-1	> 10	> 10	> 10	> 10	> 10	111	113	110	107	107	104	112	106	107	108	97.8	100	103	101	97.8	viability, T/C [16]: 91.3%; viability, T/C [17]: 94.6%; viability, T/C [18]: 97.4%; viability, T/C [19]: 67.8%; viability, T/C [20]: 75.8%; viability, T/C [21]: 67.8%; viability, T/C [22]: 66.2%; viability, T/C [23]: 68%; viability, T/C [24]: 68.4%; viability, T/C [25]: 80.2%; viability, T/C [26]: 72.8%; viability, T/C [27]: 77.1%; viability, T/C [28]: 71.4%; viability, T/C [29]: 74.8%; viability, T/C [30]: 66.6%
